Like-named read-outs stand apart in the source and are kept apart here. Marks after values point to notes of the source that are not given here.
Experiments:
[1] = molecular target: T1, human A3 adenosine receptor (Homo sapiens, UniProt P0DMS8); test: Radioligand binding, HEK293 cells expressing human A3 receptor; details: for activity class (active / inactive) in SAR and selectivity analysis / receptor selectivity class: compounds 33–52, NIH binding data; for Ki: read-out: Ki, A3 AR, [125I]-N6-(4-amino-3-iodobenzyl)adenosine-5′-N-methyluronamide; for Ki / percent of inhibition, A3 AR: NIH laboratory, HEK293; for percent of inhibition, A3 AR: 10 μM compound, agonist radioligand
T1 sequence (P0DMS8 1-318): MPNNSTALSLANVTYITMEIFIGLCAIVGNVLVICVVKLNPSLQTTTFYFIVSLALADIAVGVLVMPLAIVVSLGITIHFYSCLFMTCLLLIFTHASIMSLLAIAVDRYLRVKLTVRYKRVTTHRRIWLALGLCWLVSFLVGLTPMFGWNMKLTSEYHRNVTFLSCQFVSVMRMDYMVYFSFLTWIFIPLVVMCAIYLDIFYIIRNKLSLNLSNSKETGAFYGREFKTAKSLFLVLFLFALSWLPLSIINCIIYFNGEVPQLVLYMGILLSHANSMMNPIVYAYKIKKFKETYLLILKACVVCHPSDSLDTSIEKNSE

[2] = molecular target: T2, human A2A adenosine receptor (Homo sapiens, UniProt P29274); test: Radioligand binding, HEK293 cells expressing human A2A receptor; details: for percent of inhibition, A2A AR: 10 μM compound, NIH laboratory, agonist radioligand
[3] = molecular target: T3, human A1 adenosine receptor (Homo sapiens, UniProt P30542); test: Radioligand binding, HEK293 cells expressing human A1 receptor; details: for percent of inhibition, A1 AR: 10 μM compound
T3 sequence (P30542 1-326): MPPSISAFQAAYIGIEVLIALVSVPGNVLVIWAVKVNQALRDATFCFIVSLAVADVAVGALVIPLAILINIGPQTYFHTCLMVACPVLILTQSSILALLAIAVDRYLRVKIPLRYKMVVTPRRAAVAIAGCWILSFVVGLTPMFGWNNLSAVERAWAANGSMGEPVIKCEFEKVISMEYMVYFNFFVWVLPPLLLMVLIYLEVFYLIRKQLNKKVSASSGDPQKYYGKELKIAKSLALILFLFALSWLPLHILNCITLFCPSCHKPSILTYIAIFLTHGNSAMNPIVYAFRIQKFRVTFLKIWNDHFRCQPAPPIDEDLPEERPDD

human blood platelets = test: ADP-induced platelet aggregation in platelet-rich plasma; format: cell-based; details: 10 μM ADP, mean ± SD, n = 6–9
[4] = molecular target: T4, human A2B adenosine receptor (Homo sapiens, UniProt P29275); details: USEF, HEK-A2B membranes, 25 nM [3H]-DPCPX; for percent of inhibition, A2B AR: 10 μM compound
T4 sequence (P29275 1-332): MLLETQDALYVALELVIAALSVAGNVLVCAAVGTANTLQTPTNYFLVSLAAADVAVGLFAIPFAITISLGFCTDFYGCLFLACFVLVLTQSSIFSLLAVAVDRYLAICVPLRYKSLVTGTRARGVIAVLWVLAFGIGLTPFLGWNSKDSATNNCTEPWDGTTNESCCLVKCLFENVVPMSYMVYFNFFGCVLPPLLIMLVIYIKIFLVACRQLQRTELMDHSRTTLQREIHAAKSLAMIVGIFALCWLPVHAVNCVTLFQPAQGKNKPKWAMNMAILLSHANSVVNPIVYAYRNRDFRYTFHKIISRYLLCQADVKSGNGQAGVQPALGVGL

[5] = molecular target: T2, human A2A adenosine receptor; details: 10 μM compound; USEF; HeLa-A2A membranes; 3 nM [3H]-ZM241385
[6] = molecular target: T1, human A3 adenosine receptor; details: for percent of inhibition, A3 AR: 10 μM compound, USEF, HeLa-A3 membranes, 10 nM [3H]-NECA
[7] = molecular target: T3, human A1 adenosine receptor; details: 10 μM compound; USEF; CHO-A1 membranes; 1 nM [3H]-DPCPX
[8] = NIH laboratory, HEK293, [3H]-N6-R-phenylisopropyladenosine

T2 sequence (P29274 whole entry): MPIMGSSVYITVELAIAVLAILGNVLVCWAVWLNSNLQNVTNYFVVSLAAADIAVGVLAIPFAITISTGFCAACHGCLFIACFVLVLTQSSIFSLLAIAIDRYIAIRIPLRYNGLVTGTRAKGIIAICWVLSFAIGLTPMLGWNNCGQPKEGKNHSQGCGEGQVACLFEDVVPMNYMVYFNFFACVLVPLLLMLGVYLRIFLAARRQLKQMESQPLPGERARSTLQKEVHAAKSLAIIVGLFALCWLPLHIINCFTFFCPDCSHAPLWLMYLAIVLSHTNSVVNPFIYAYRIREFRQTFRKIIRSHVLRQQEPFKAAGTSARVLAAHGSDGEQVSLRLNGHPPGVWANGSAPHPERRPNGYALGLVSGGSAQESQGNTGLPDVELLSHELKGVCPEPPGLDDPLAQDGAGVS

| Compound | activity class (active / inactive) in SAR and selectivity analysis [1] | receptor selectivity class [1] | percent of inhibition, A3 AR [1] [%] | percent of inhibition, A2A AR [2] [%] | percent of inhibition, A1 AR [3, 8] [%] | further results |
| --- | --- | --- | --- | --- | --- | --- |
| 2-Ethynyl-(1,12-dicarba-closo-dodecaboran-1-yl)adenosine [Compound 41] | active | not selective | – | – | – | Ki [1]: 0.206 ± 0.031 µM; Ki ([2]; read-out: Ki, A2A AR, NIH laboratory, [3H]-2-[p-(2-carboxyethyl)phenyl-ethylamino]-5′-N-ethylcarboxamidoadenosine): 3.07 ± 0.53 µM; Ki ([3]; read-out: Ki, A1 AR, NIH laboratory, HEK293, [3H]-N6-R-phenylisopropyladenosine): 2.87 ± 1.69 µM |
| 2-ethyl-(1,12-dicarba-closo-dodecaboran-2-yl)arabinoadenosine [Compound 49] | – | – | 25 ± 8 | 12 ± 14 | 27 ± 9 | – |
| 2-ethynyl-(1,12-dicarba-closo-dodecaboran-2-yl) arabinoadenosine [Compound 47] | active | A3 selective | – | 17 ± 2.7 | 15 ± 1 | Ki [1]: 4.39 ± 2.02 µM |
| 2′-O-(1,12-dicarba-closo-dodecaboran-1-yl)propyleneoxymethyl]-adenosine [Compound 37] | – | – | 19 ± 14 | 7 ± 2 | 6 ± 10 | area under the aggregation curve, ADP-induced platelet aggregation (human blood platelets; 10 μM compound): 661.1 ± 61.3 arbitrary units; area under the aggregation curve, ADP-induced platelet aggregation (human blood platelets; 50 μM compound): 616.0 ± 24.7 arbitrary units |
| 8-[2-(1,12-dicarba-closo-dodecaboran-1-yl)ethyl]-adenosine [Compound 35] | inactive | – | 9 ± 13 | 18 ± 4 | 16 ± 7 | area under the aggregation curve, ADP-induced platelet aggregation (human blood platelets; 10 μM compound): 665.7 ± 86.8 arbitrary units; area under the aggregation curve, ADP-induced platelet aggregation (human blood platelets; 50 μM compound): 682.3 ± 17.4 arbitrary units |
| 8-[2-(1,12-dicarba-closo-dodecaboran-1-yl)ethynyl] adenosine [Compound 33] | inactive | – | 48 ± 12 | 17.1 ± 8 | 29 ± 7 | – |
| 8-[2-(1,12-dicarba-closo-dodecaboran-1-yl)ethynyl]-2′-deoxyadenosine [Compound 43] | inactive | – | 1 ± 8 | 10 ± 5 | 6 ± 6 | – |
| Nc1ncnc2c1nc(C#Cc1ccccc1)n2[C@@H]1O[C@H](CO)[C@@H](O)[C@H]1O [Compound 34, 8-(2-phenylethynyl)adenosine] | active | A3 selective | – | – | – | inhibition at 10 µM ([3]; read-out: percent of inhibition, A1 AR): 11 ± 3% |
| Nc1ncnc2c1nc(CCc1ccccc1)n2[C@@H]1O[C@H](CO)[C@@H](O)[C@H]1O [Compound 36, 8-(2-phenylethyl)adenosine] | inactive | – | – | – | – | – |
| Nc1nc(C#Cc2ccccc2)nc2c1ncn2[C@@H]1O[C@H](CO)[C@@H](O)[C@H]1O [Compound 42, 2-Phenylethynyladenosine] | active | not selective | – | – | – | – |
| Nc1ncnc2c1nc(C#Cc1ccccc1)n2[C@H]1C[C@H](O)[C@@H](CO)O1 [Compound 44] | active | not selective | – | – | – | – |
| Nc1nc(CCc2ccccc2)nc2c1ncn2[C@@H]1O[C@H](CO)[C@@H](O)[C@H]1O [Compound 46] | inactive | not selective | – | – | – | – |
| Nc1nc(C#Cc2ccccc2)nc2c1ncn2[C@@H]1O[C@H](CO)[C@@H](O)[C@@H]1O [Compound 48] | active | A3 selective | – | – | – | – |
| Nc1nc(CCc2ccccc2)nc2c1ncn2[C@@H]1O[C@H](CO)[C@@H](O)[C@@H]1O [Compound 50] | inactive | – | – | – | – | – |
| Nc1ncnc2c1nc(CCc1ccccc1)n2[C@H]1C[C@H](O)[C@@H](CO)O1 [Compound 52] | inactive | – | – | – | – | – |
| N^6-(3-phenylpropyl)-2-chloro-2′-deoxyadenosine [Compound 28] | – | – | – | – | – | percent of inhibition, A2B AR [4]: 1 ± 1 %^a; percent of inhibition, A2A AR [5]: 14 ± 2 %^a |
| N^6-[3-(1,12-Dicarba-closo-dodecaboran-1-yl)propyl]adenosine [Compound 39] | – | – | 0 ± 12 | 0 ± 1 | 32 ± 1 | area under the aggregation curve, ADP-induced platelet aggregation (human blood platelets; 10 μM compound): 678.4 ± 55.7 arbitrary units; area under the aggregation curve, ADP-induced platelet aggregation (human blood platelets; 50 μM compound): 658.0 ± 46.8 arbitrary units |
| N^6-[3-(1,12-dicarba-closo-dodecaboran-1-yl)propyl]-2-chloro-2′-deoxyadenosine [Compound 27] | – | – | – | – | – | Ki ([4]; read-out: Ki, A2B AR): 4.67 µM; percent of inhibition, A2A AR [5]: 1 ± 1 %^a; percent of inhibition, A3 AR [6]: 10 ± 3 %^a; percent of inhibition, A1 AR [7]: 25 ± 1 %^a |
| N^6-[3-(1,12-dicarba-closo-dodecaboran-1-yl)propyl]-2-chloroadenosine [Compound 23] | – | – | – | – | – | area under the aggregation curve, ADP-induced platelet aggregation (human blood platelets; 10 μM compound): 715.3 ± 85.8 arbitrary units; area under the aggregation curve, ADP-induced platelet aggregation (human blood platelets; 50 μM compound): 657.0 ± 67.2 arbitrary units; percent of inhibition, A2A AR [5]: 1 ± 1 %^a |
| N^6-[(1,12-dicarba-closo-dodecaboran-1-yl)prop-3-yl]-5′-ethylcarbamoyl adenosine [Compound 17] | – | – | – | – | – | area under the aggregation curve, ADP-induced platelet aggregation (human blood platelets; 10 μM compound): 646.2 ± 58.6 arbitrary units; area under the aggregation curve, ADP-induced platelet aggregation (human blood platelets; 50 μM compound): 639.5 ± 64.7 arbitrary units; percent of inhibition, A2B AR [4]: 4 ± 4 %^a; percent of inhibition, A2A AR [5]: 1 ± 1 %^a; percent of inhibition, A3 AR [6]: 34 ± 4 %^a; activity class (active / inactive) in selectivity analysis ([6]; N6 carborane derivatives, USEF binding data): inactive; percent of inhibition, A1 AR [7]: 18 ± 3 %^a |
